Source: ChEMBL document CHEMBL1125517, “Synthesis and antifolate evaluation of 10-ethyl-5-methyl-5,10- dideazaaminopterin and an alternative synthesis of 10-ethyl-10- deazaaminopterin (edatrexate)” (J Med Chem, 1992)
pIC50: −log10 of the molar value.

Key:
L1210 [1] = assay: Compound was evaluated for influx of L1210 cells; type: functional, cell-based; details: Mus musculus
L1210 [2] = assay: In vitro inhibition of L1210 cell growth; type: functional, cell-based; details: Mus musculus

Row | pIC50 (L1210 [2]) | Compound | Km (L1210 [1])
1 | 7.19 | CCC(Cc1cnc2nc(N)nc(N)c2n1)c1ccc(C(=O)NC(CCC(=O)O)C(=O)O)cc1 (centres undefined) | 1.08 µM
2 | 8.47 | CN(Cc1cnc2nc(N)nc(N)c2n1)c1ccc(C(=O)N[C@@H](CCC(=O)O)C(=O)O)cc1 [METHOTREXATE] | 3.51 µM
